Laboratory results as given in ChEMBL document CHEMBL1240532, “Spiroindolones, a potent compound class for the treatment of malaria” (Science, 2010).
Activity calls are given as the source filed them. The rule behind the calls is not given here.

Assays:
Plasmodium vivax = assay: Antimalarial activity against Plasmodium vivax isolates after 42 hrs; assay type: functional, organism-based
Plasmodium falciparum [1] = assay: Antimalarial activity against Plasmodium falciparum 3D7 after 48 hrs incubation by [3H]hypoxanthin incorporation assay
Plasmodium falciparum [2] = assay: Antimalarial activity against chloroquine and pyrimethamine-resistant Plasmodium falciparum V1/S after 48 hrs incubation by [3H]hypoxanthine incorporation assay
hERG (KCNH2) [3] = biological target: T1, hERG (KCNH2) (Homo sapiens, UniProt Q12809); assay: Inhibition of human ERG at 30 uM
[4] = biological target: T2, Voltage-gated inwardly rectifying potassium channel KCNH2 (Homo sapiens, UniProt Q12809); assay: Inhibition of human ERG
hERG (KCNH2) [5] = biological target: T1, hERG (KCNH2); assay: Inhibition of human ERG at 30 uM by patch clamp method
[6] = biological target: T2, Voltage-gated inwardly rectifying potassium channel KCNH2; assay: Inhibition of human ERG by patch clamp method
[7] = Binding affinity to human recombinant adenosine transporter
[8] = biological target: Beta-3 adrenergic receptor (Homo sapiens, UniProt P13945); assay: Binding affinity to human recombinant adrenergic beta3 receptor
[9] = biological target: Alpha-2A adrenergic receptor (Homo sapiens, UniProt P08913); assay: Binding affinity to human recombinant alpha-2a receptor
Androgen receptor = Androgen receptor (Homo sapiens, UniProt P10275); assay: Binding affinity to human recombinant androgen receptor
[10] = biological target: Type-1 angiotensin II receptor (Homo sapiens, UniProt P30556); assay: Binding affinity to human recombinant angiotensin2 AT1 receptor
[11] = Binding affinity to rat N-type calcium channel
[12] = biological target: Prostaglandin G/H synthase 2 (Homo sapiens, UniProt P35354); assay: Binding affinity to human recombinant COX2
D(1A) dopamine receptor = D(1A) dopamine receptor (Homo sapiens, UniProt P21728); assay: Binding affinity to human recombinant dopamine D1 receptor
Glucagon receptor = Glucagon receptor (Homo sapiens, UniProt P47871); assay: Binding affinity to human recombinant glucagon receptor
[13] = biological target: Growth hormone secretagogue receptor type 1 (Homo sapiens, UniProt Q92847); assay: Binding affinity to human recombinant Ghrelin receptor
Histamine H2 receptor = Histamine H2 receptor (Homo sapiens, UniProt P25021); assay: Binding affinity to human recombinant histamine H2 receptor
Motilin receptor = Motilin receptor (Homo sapiens, UniProt O43193); assay: Binding affinity to human recombinant motilin receptor
[14] = biological target: Muscarinic acetylcholine receptor M2 (Homo sapiens, UniProt P08172); assay: Binding affinity to human recombinant muscarinic M2 receptor
Substance-P receptor = Substance-P receptor (Homo sapiens, UniProt P25103); assay: Binding affinity to human recombinant neurokinin NK1 receptor
[15] = biological target: Neuropeptide Y receptor type 2 (Homo sapiens, UniProt P49146); assay: Binding affinity to human recombinant neuropeptide Y2 receptor
[16] = biological target: Hydroxycarboxylic acid receptor 2 (Homo sapiens, UniProt Q8TDS4); assay: Binding affinity to human recombinant niacin receptor
[17] = biological target: Glutamate [NMDA] receptor; assay: Binding affinity to human recombinant NMDA receptor
[18] = biological target: Sodium-dependent noradrenaline transporter (Homo sapiens, UniProt P23975); assay: Binding affinity to human recombinant norepinephrine transporter
[19] = biological target: Delta-type opioid receptor (Homo sapiens, UniProt P41143); assay: Binding affinity to human recombinant opiate delta receptor
Mu-type opioid receptor = Mu-type opioid receptor (Homo sapiens, UniProt P35372); assay: Binding affinity to human recombinant opiate mu receptor
[20] = biological target: 5-hydroxytryptamine receptor 2A (Homo sapiens, UniProt P28223); assay: Binding affinity to human recombinant serotonin 5-HT2A receptor
[21] = biological target: 5-hydroxytryptamine receptor 2B (Homo sapiens, UniProt P41595); assay: Binding affinity to human recombinant serotonin 5-HT2B receptor
[22] = AUC (0 to infinity) in CD1 mouse at 24.6 mg/kg, po; assay type: ADME, organism-based; design: time infinity, dose 24.6 mg/kg, route oral; conditions: plasma
[23] = Oral bioavailability in CD1 mouse at 24.6 mg/kg; assay type: ADME, organism-based; conditions: in vivo
[24] = Clearance in Wistar rat at 5 mg/kg, iv; assay type: ADME, organism-based; design: dose 5 mg/kg, route intravenous; conditions: in vivo
[25] = Cmax in Wistar rat at 23.7 mg/kg, po; assay type: ADME, organism-based; design: dose 23.7 mg/kg, route oral; conditions: in vivo
[26] = Tmax in Wistar rat at 23.7 mg/kg, po; assay type: ADME, organism-based; design: dose 23.7 mg/kg, route oral; conditions: in vivo
[27] = AUC (0 to infinity) in Wistar rat at 23.7 mg/kg, po; assay type: ADME, organism-based; design: time infinity, dose 23.7 mg/kg, route oral; conditions: plasma
[28] = Intrinsic clearance in rat liver microsome; assay type: ADME; conditions: liver microsomes
Plasmodium berghei [29] = assay: Antimalarial activity against Plasmodium berghei GFP ANKA infected in NMRI mice (Mus musculus) assessed as survival at 100 mg/kg, perorally administered as single dose 24 hrs post infection for 1 day measured 72 hrs post infection; assay type: functional; conditions: route oral
Plasmodium berghei [30] = assay: Antimalarial activity against Plasmodium berghei GFP ANKA infected in NMRI mice (Mus musculus) assessed as cure rate at 100 mg/kg, perorally administered as single dose 24 hrs post infection for 1 day measured 30 days post infection; assay type: functional; conditions: route oral
Plasmodium berghei [31] = assay: Antimalarial activity against Plasmodium berghei GFP ANKA infected in NMRI mice (Mus musculus) assessed as reduction in parasitaemia at 10 mg/kg, perorally administered through 0.5% MCM/0.1%solutol HS15 formulation 24 hrs post infection for 3 days measured 96 hrs post infection; assay type: functional; design: scale not given: the % may be the effect or the level left; conditions: route oral
Plasmodium berghei [32] = assay: Antimalarial activity against Plasmodium berghei GFP ANKA infected in NMRI mice (Mus musculus) assessed as survival at 30 mg/kg, perorally administered through 0.5% MCM/0.1%solutol HS15 formulation 24 hrs post infection for 3 days measured 96 hrs post infection; assay type: functional; conditions: route oral
Plasmodium berghei [33] = assay: Antimalarial activity against Plasmodium berghei GFP ANKA infected in NMRI mice (Mus musculus) assessed as cure rate at 10 mg/kg, perorally administered through 0.5% MCM/0.1%solutol HS15 formulation 24 hrs post infection for 3 days measured on day 30 post infection; assay type: functional; conditions: route oral
Plasmodium falciparum [34] = assay: Antimalarial activity against Plasmodium falciparum Dd2 after 72 hrs by SYBR green based fluorescence assay; assay type: functional, organism-based; conditions: Dd2, 72 h
Plasmodium falciparum [35] = assay: Antimalarial activity against Plasmodium falciparum assessed as […] by SYBR green based fluorescence assay; assay type: functional, organism-based; conditions: Plasmodium falciparum
Plasmodium berghei [36] = assay: Antimalarial activity against Plasmodium berghei GFP ANKA infected in NMRI mice (Mus musculus) assessed as reduction in parasitaemia dosed in ETPGS formulation 1 day post infection measured 72 hrs post infection; assay type: functional
in vivo [37] = conditions: CD1, mouse, iv, 5.4 mg/kg
in vivo [38] = conditions: CD1, mouse, po, 24.6 mg/kg
in vivo [39] = conditions: Wistar, rat, iv, 5 mg/kg
Plasmodium falciparum [40] = assay: microbe, parasite or virus in culture; conditions: TM90C2A
Plasmodium falciparum [41] = assay: microbe, parasite or virus in culture; conditions: Dd2, 72 h
Plasmodium falciparum [42] = assay: microbe, parasite or virus in culture; conditions: Dd2, 72 h; remark: listed apart in the source
Plasmodium falciparum [43] = assay: microbe, parasite or virus in culture; conditions: Dd2, 72 h; remark: listed apart in the source

T1 sequence (Q12809 whole entry): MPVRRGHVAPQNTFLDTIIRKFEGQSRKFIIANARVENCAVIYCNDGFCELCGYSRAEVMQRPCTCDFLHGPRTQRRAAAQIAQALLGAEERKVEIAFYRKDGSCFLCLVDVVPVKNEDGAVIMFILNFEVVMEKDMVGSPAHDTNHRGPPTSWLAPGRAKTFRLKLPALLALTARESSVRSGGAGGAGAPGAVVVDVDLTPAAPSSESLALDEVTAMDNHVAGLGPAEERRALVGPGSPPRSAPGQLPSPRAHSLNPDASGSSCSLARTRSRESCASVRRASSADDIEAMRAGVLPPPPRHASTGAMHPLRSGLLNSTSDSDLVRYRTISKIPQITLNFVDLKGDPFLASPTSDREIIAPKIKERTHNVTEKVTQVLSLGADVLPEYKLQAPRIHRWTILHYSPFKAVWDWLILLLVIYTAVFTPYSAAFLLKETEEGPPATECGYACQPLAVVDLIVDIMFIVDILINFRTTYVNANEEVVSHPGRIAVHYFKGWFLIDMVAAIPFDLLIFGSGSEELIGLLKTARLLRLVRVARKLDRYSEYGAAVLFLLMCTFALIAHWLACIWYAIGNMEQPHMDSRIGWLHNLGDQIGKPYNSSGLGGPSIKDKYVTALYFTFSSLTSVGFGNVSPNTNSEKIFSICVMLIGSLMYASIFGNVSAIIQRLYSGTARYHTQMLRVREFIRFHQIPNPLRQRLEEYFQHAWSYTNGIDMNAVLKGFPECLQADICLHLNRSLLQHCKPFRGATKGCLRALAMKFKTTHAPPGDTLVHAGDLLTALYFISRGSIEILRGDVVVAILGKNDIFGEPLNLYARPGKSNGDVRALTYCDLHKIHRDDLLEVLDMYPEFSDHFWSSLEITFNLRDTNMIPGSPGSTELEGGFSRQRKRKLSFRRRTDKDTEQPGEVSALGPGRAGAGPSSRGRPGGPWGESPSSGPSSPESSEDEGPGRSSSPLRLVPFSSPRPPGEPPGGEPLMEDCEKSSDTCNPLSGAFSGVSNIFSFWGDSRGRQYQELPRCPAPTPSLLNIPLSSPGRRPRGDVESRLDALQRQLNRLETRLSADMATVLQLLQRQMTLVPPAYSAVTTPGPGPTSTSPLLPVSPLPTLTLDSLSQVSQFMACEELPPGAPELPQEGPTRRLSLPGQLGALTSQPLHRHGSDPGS
T2 sequence (Q12809 whole entry): as above
5-hydroxytryptamine receptor 2A, sequence (P28223 whole entry): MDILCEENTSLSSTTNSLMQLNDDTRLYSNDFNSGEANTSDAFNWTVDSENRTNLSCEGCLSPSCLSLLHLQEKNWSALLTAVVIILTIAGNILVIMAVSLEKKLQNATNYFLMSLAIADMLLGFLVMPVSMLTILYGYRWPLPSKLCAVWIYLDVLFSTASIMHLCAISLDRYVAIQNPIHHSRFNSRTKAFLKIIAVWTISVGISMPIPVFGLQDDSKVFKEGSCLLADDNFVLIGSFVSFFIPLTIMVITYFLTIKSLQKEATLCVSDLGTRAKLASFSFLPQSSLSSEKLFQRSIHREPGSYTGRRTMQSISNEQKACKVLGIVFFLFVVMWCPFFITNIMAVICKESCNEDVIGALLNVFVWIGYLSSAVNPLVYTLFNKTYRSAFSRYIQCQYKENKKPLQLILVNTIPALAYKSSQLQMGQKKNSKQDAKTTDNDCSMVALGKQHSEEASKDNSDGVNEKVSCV
Delta-type opioid receptor, sequence (P41143 whole entry): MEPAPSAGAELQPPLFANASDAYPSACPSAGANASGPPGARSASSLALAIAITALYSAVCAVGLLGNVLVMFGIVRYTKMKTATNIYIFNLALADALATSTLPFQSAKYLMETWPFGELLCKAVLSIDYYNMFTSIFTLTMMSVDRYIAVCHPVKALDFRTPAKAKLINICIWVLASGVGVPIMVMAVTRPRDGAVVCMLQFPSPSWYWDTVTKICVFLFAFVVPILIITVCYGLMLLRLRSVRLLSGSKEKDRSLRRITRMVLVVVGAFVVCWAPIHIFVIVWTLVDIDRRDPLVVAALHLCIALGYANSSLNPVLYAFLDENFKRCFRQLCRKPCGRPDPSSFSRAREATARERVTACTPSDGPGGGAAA
Type-1 angiotensin II receptor, sequence (P30556 whole entry): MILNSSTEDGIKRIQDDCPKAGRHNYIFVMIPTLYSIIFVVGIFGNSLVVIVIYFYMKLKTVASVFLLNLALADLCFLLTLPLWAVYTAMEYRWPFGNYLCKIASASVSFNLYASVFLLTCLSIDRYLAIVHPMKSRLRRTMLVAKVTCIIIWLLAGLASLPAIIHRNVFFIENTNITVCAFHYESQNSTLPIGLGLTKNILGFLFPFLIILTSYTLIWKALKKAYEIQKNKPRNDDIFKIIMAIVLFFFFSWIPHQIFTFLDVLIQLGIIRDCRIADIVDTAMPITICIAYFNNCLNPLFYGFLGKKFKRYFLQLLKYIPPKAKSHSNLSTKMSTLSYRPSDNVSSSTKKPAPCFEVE
Substance-P receptor, sequence (P25103 whole entry): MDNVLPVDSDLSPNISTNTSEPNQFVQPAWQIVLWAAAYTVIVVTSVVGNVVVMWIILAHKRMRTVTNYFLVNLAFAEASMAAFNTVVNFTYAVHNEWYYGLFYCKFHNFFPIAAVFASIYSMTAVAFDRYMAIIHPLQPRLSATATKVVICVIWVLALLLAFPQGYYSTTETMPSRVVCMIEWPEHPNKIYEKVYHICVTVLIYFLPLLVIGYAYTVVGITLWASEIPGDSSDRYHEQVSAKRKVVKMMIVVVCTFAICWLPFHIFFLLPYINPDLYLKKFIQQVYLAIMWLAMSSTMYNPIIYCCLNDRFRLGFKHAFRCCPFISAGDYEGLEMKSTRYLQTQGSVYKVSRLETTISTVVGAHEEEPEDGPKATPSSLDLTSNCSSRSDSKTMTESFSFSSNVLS
Mu-type opioid receptor, sequence (P35372 whole entry): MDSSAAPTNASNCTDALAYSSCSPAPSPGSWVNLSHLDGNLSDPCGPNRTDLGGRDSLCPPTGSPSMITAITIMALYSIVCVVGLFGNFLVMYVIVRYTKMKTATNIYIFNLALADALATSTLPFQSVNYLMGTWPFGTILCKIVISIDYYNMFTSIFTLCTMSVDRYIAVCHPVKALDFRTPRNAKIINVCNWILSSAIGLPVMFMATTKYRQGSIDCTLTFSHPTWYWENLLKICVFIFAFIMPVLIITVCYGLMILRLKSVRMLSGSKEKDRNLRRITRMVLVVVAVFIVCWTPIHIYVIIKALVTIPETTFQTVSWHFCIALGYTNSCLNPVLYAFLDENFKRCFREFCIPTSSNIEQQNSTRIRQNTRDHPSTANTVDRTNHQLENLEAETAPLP
Growth hormone secretagogue receptor type 1, sequence (Q92847 whole entry): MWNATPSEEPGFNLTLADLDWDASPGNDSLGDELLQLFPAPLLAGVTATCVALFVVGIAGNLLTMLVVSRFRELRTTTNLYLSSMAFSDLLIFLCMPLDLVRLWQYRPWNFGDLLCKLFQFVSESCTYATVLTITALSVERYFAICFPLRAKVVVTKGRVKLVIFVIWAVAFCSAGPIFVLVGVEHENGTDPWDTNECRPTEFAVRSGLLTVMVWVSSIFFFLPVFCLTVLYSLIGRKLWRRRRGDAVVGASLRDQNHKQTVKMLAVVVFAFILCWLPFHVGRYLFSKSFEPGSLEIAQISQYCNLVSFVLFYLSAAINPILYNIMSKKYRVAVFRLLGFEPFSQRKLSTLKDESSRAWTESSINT

In the case of `C[C@H]1Cc2c([nH]c3cc(Cl)c(F)cc23)[C@@]2(N1)C(=O)Nc1ccc(Cl)cc12` [CIPARGAMIN], the inhibition (Plasmodium vivax) is reported as “Active”, the IC50 (Plasmodium falciparum [1]) is reported as 0.0007 µM and the IC50 (Plasmodium falciparum [2]) is reported as 0.0014 µM. For the same molecule, the inhibition at 30 µM (hERG (KCNH2) [3]) was 52%, the IC50 [4] was 30.4 µM and the inhibition at 30 µM (hERG (KCNH2) [5]) was 44.9%. For the same molecule, the IC50 [6] was greater than 30 µM, the IC50 [7] was greater than 30 µM and the IC50 [8] was greater than 30 µM. The IC50 [9] was greater than 10 µM, the IC50 (Androgen receptor) was greater than 30 µM and the IC50 [10] was greater than 30 µM. It also gave an IC50 [11] greater than 10 µM, an IC50 [12] greater than 30 µM and an IC50 (D(1A) dopamine receptor) greater than 10 µM. It also gave an IC50 (Glucagon receptor) greater than 30 µM, an IC50 [13] greater than 30 µM and an IC50 (Histamine H2 receptor) greater than 10 µM. The IC50 (Motilin receptor) was greater than 10 µM, the IC50 [14] was greater than 10 µM and the IC50 (Substance-P receptor) was greater than 10 µM. The IC50 [15] was greater than 10 µM, the IC50 [16] was greater than 10 µM and the IC50 [17] was greater than 10 µM. It also gave an IC50 [18] greater than 10 µM, an IC50 [19] greater than 10 µM and an IC50 (Mu-type opioid receptor) greater than 10 µM. For the same molecule, the IC50 [20] was greater than 10 µM, the IC50 [21] was greater than 10 µM and the AUC(0-inf) [22] was 139 µM·h. It also gave a bioavailability [23] of 100%, a clearance [24] of 3.48 mL/min/kg and a Cmax [25] of 11.7 µM. For the same molecule, the Tmax [26] was 8 h, the AUC(0-inf) [27] was 524 µM·h and the CLint scaled [28] was 5.8 mL/min/kg. It also gave a Survival (Plasmodium berghei [29]) greater than 30 days, an Activity (Plasmodium berghei [30]) of 100% and an Activity (Plasmodium berghei [31]) of […]. The Survival (Plasmodium berghei [32]) was 29.1 days, the Activity (Plasmodium berghei [33]) was 50% and the IC50 (Plasmodium falciparum [34]) was 0.00044 µM. It also gave an IC50 (Plasmodium falciparum [35]) of 0.0005 µM, an ED50 (Plasmodium berghei [36]) of 1.2 mg/kg and an ED99 (Plasmodium berghei [36]) of 5.3 mg/kg. For the same molecule, the half-life (in vivo [37]) was 3.44 h, the half-life (in vivo [38]) was 10 h and the half-life (in vivo [39]) was 10.7 h. The IC50 (Plasmodium falciparum [40]) was 0.0005 µM, the IC50 (Plasmodium falciparum [41]) was 0.0041 µM and the IC50 (Plasmodium falciparum [42]) was 0.00189 µM. The IC50 (Plasmodium falciparum [43]) was 0.0039 µM.
